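Method: 48-hour compound exposure of cells in 96-well plates, five concentrations, linear interpolation of endpoints. At the GI50, growth is halved. TGI marks complete inhibition of growth.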
What was measured:
Assay in all cases: NCI anticancer screen, dose series, 48 h
786-0 renal = system: 786-0 renal
RPMI-8226 leukemia = system: RPMI-8226 leukemia
SK-MEL-5 melanoma = system: SK-MEL-5 melanoma
OVCAR-4 ovarian = system: OVCAR-4 ovarian
HCC-2998 colon = system: HCC-2998 colon
PC-3 prostate = system: PC-3 prostate
SK-MEL-2 melanoma = system: SK-MEL-2 melanoma
HOP-92 NSCLC = system: HOP-92 NSCLC
MDA-MB-435 = system: MDA-MB-435
SN12C renal = system: SN12C renal

Structure (SMILES) | GI50 (786-0 renal) [µM] | TGI (786-0 renal) [µM] | GI50 (RPMI-8226 leukemia) [µM] | TGI (RPMI-8226 leukemia) [µM] | GI50 (SK-MEL-5 melanoma) [µM] | TGI (SK-MEL-5 melanoma) [µM] | GI50 (OVCAR-4 ovarian) [µM] | TGI (OVCAR-4 ovarian) [µM] | GI50 (HCC-2998 colon) [µM] | TGI (HCC-2998 colon) [µM] | GI50 (PC-3 prostate) [µM] | TGI (PC-3 prostate) [µM] | GI50 (SK-MEL-2 melanoma) [µM] | TGI (SK-MEL-2 melanoma) [µM] | GI50 (HOP-92 NSCLC) [µM] | TGI (HOP-92 NSCLC) [µM] | GI50 (MDA-MB-435) [µM] | TGI (MDA-MB-435) [µM] | GI50 (SN12C renal) [µM] | TGI (SN12C renal) [µM]
C=C[C@]1(C)C=C2C(=O)[C@@]3(O)OC(=O)[C@@]4(CCCC(C)(C)[C@H]34)[C@@]2(O)CC1 | 1.68 | 3.13 | 1.13 | 8.17 | 1.58 | 2.97 | 1.05 | 2.87 | 2.14 | 3.81 | 1.45 | 5.08 | 2.27 | 5.02 | 0.282 | 1.62 | 1.76 | 4.42 | 1.96 | 4.82
Cc1ccc2sc3c(NCCCNCCO)nc4ccccc4c3c(=O)c2c1 | 1.7 | 3.23 | 1.57 | 3.38 | 1.78 | 3.25 | 1.64 | 3.12 | 1.64 | 3.32 | 1.38 | 2.87 | 1.73 | 3.36 | 1.28 | 3.78 | 1.74 | 3.27 | 1.6 | 3.16
Cc1ccc(NC(=O)c2ccnc(N3CCCC3)c2)cc1-c1ccc(C(=O)NCC2CC2)cc1 | > 25 | > 25 | > 25 | > 25 | > 25 | > 25 | > 25 | > 25 | > 25 | > 25 | > 25 | > 25 | > 25 | > 25 | 8.2 | > 25 | > 25 | > 25 | > 25 | > 25
COc1cnc2c(c1)C(=O)c1c-2n(CCCN2CCN(C)CC2)c(=O)c2cc(Cl)ccc12 | 2.47 | 31.8 | 13.9 | 45.1 | 11 | 25.2 | 2.19 | 18.1 | 11.3 | 26.8 | 3.6 | 65.7 | 5.29 | 23.2 | 4.68 | 29.8 | 1.53 | 3.14 | 10.2 | 58.2
ON(CCc1ccccn1)Cc1ccccc1 |  | > 100 |  | > 100 |  | > 100 |  | > 100 |  | > 100 |  | > 100 |  | > 100 |  | > 100 |  | > 100 |  | > 100
CC1(C)C2CCC13C(=O)C1OC3(C2)C2C(=O)c3c(O)ccc(O)c3C(=O)C12 (stereo not given) | 10.5 | 24.7 | 1.27 | 6.1 | 13.4 | 41.5 | > 100 | > 100 | 42.9 | > 100 | 30.8 | 98.5 | 26.1 | > 100 | 17.8 | 46.8 | 34.9 | > 74.5 | 16.3 | 35.7
